Results reported in the NIST ThermoML archive (doi:10.1016/j.jct.2005.05.008).
Numbers after ± are expanded uncertainties.

Assay: an = ratio of the nth substance listed, in mol/kg
Conditions: 101 kPa, Liquid, Vibrating tube method

CN(C)C=O [dimethylformamide] + CCCC[N+](CCCC)(CCCC)CCCC.[O-][Cl+3]([O-])([O-])[O-]
mass density (283.15 K, a2 = 0): 958.067 ± 0.27 kg/m3
mass density (293.15 K, a2 = 0): 948.553 ± 0.27 kg/m3
mass density (298.15 K, a2 = 0): 943.79 ± 0.27 kg/m3
mass density (303.15 K, a2 = 0): 939.014 ± 0.27 kg/m3
mass density (313.15 K, a2 = 0): 929.43 ± 0.26 kg/m3
mass density (323.15 K, a2 = 0): 919.797 ± 0.26 kg/m3
mass density (333.15 K, a2 = 0): 910.117 ± 0.26 kg/m3

CN(C)C=O [dimethylformamide] + CC[N+](CC)(CC)CC.[O-][Cl+3]([O-])([O-])[O-]
mass density (283.15 K, a2 = 0): 958.067 ± 0.27 kg/m3
mass density (293.15 K, a2 = 0): 948.553 ± 0.27 kg/m3
mass density (298.15 K, a2 = 0): 943.79 ± 0.27 kg/m3
mass density (303.15 K, a2 = 0): 939.014 ± 0.27 kg/m3
mass density (313.15 K, a2 = 0): 929.43 ± 0.26 kg/m3
mass density (323.15 K, a2 = 0): 919.797 ± 0.26 kg/m3
mass density (333.15 K, a2 = 0): 910.117 ± 0.26 kg/m3

CC[N+](CC)(CC)CC.[O-][Cl+3]([O-])([O-])[O-] [tetraethylammonium perchlorate] + CN(C)C=O
mass density (283.15 K, a1 = 0.02269): 959.351 ± 0.27 kg/m3
mass density (283.15 K, a1 = 0.04218): 960.443 ± 0.27 kg/m3
mass density (283.15 K, a1 = 0.06274): 961.586 ± 0.27 kg/m3
mass density (283.15 K, a1 = 0.08215): 962.663 ± 0.27 kg/m3
mass density (283.15 K, a1 = 0.1147): 964.449 ± 0.27 kg/m3
mass density (283.15 K, a1 = 0.1455): 966.152 ± 0.27 kg/m3
mass density (283.15 K, a1 = 0.1761): 967.825 ± 0.27 kg/m3
mass density (283.15 K, a1 = 0.2062): 969.465 ± 0.27 kg/m3
mass density (293.15 K, a1 = 0.02269): 949.863 ± 0.27 kg/m3
mass density (293.15 K, a1 = 0.04218): 950.975 ± 0.27 kg/m3
mass density (293.15 K, a1 = 0.06274): 952.142 ± 0.27 kg/m3
mass density (293.15 K, a1 = 0.08215): 953.234 ± 0.27 kg/m3
mass density (293.15 K, a1 = 0.1147): 955.047 ± 0.27 kg/m3
mass density (293.15 K, a1 = 0.1455): 956.775 ± 0.27 kg/m3
mass density (293.15 K, a1 = 0.1761): 958.473 ± 0.27 kg/m3
mass density (293.15 K, a1 = 0.2062): 960.139 ± 0.27 kg/m3
mass density (298.15 K, a1 = 0.02269): 945.114 ± 0.27 kg/m3
mass density (298.15 K, a1 = 0.04218): 946.237 ± 0.27 kg/m3
mass density (298.15 K, a1 = 0.06274): 947.409 ± 0.27 kg/m3
mass density (298.15 K, a1 = 0.08215): 948.513 ± 0.27 kg/m3
mass density (298.15 K, a1 = 0.1147): 950.338 ± 0.27 kg/m3
mass density (298.15 K, a1 = 0.1455): 952.082 ± 0.27 kg/m3
mass density (298.15 K, a1 = 0.1761): 953.791 ± 0.27 kg/m3
mass density (298.15 K, a1 = 0.2062): 955.471 ± 0.27 kg/m3
mass density (303.15 K, a1 = 0.02269): 940.349 ± 0.27 kg/m3
mass density (303.15 K, a1 = 0.04218): 941.482 ± 0.27 kg/m3
mass density (303.15 K, a1 = 0.06274): 942.667 ± 0.27 kg/m3
mass density (303.15 K, a1 = 0.08215): 943.781 ± 0.27 kg/m3
mass density (303.15 K, a1 = 0.1147): 945.623 ± 0.27 kg/m3
mass density (303.15 K, a1 = 0.1455): 947.378 ± 0.27 kg/m3
mass density (303.15 K, a1 = 0.1761): 949.101 ± 0.27 kg/m3
mass density (303.15 K, a1 = 0.2062): 950.793 ± 0.27 kg/m3
mass density (313.15 K, a1 = 0.02269): 930.795 ± 0.26 kg/m3
mass density (313.15 K, a1 = 0.04218): 931.951 ± 0.26 kg/m3
mass density (313.15 K, a1 = 0.06274): 933.155 ± 0.26 kg/m3
mass density (313.15 K, a1 = 0.08215): 934.288 ± 0.27 kg/m3
mass density (313.15 K, a1 = 0.1147): 936.165 ± 0.27 kg/m3
mass density (313.15 K, a1 = 0.1455): 937.945 ± 0.27 kg/m3
mass density (313.15 K, a1 = 0.1761): 939.7 ± 0.27 kg/m3
mass density (313.15 K, a1 = 0.2062): 941.419 ± 0.27 kg/m3
mass density (323.15 K, a1 = 0.02269): 921.19 ± 0.26 kg/m3
mass density (323.15 K, a1 = 0.04218): 922.369 ± 0.26 kg/m3
mass density (323.15 K, a1 = 0.06274): 923.599 ± 0.26 kg/m3
mass density (323.15 K, a1 = 0.08215): 924.748 ± 0.26 kg/m3
mass density (323.15 K, a1 = 0.1147): 926.661 ± 0.26 kg/m3
mass density (323.15 K, a1 = 0.1455): 928.473 ± 0.26 kg/m3
mass density (323.15 K, a1 = 0.1761): 930.257 ± 0.26 kg/m3
mass density (323.15 K, a1 = 0.2062): 932.007 ± 0.26 kg/m3
mass density (333.15 K, a1 = 0.02269): 911.533 ± 0.26 kg/m3
mass density (333.15 K, a1 = 0.04218): 912.731 ± 0.26 kg/m3
mass density (333.15 K, a1 = 0.06274): 913.987 ± 0.26 kg/m3
mass density (333.15 K, a1 = 0.08215): 915.156 ± 0.26 kg/m3
mass density (333.15 K, a1 = 0.1147): 917.106 ± 0.26 kg/m3
mass density (333.15 K, a1 = 0.1455): 918.957 ± 0.26 kg/m3
mass density (333.15 K, a1 = 0.1761): 920.766 ± 0.26 kg/m3
mass density (333.15 K, a1 = 0.2062): 922.55 ± 0.26 kg/m3
